Values quoted from earlier work as cited in patent publication US20030018166A1 (priority 2000, published 2003).
Read-outs that look alike come from different tables or passages of the source.

Biological target: T1, M. avium ICL (UniProt P9WKK7)
T1 construct: The proteins were purified by the 6His-tag attached to the N terminus; fused on or other part: N-terminal 6His tag
T1 sequence (P9WKK7 1-428): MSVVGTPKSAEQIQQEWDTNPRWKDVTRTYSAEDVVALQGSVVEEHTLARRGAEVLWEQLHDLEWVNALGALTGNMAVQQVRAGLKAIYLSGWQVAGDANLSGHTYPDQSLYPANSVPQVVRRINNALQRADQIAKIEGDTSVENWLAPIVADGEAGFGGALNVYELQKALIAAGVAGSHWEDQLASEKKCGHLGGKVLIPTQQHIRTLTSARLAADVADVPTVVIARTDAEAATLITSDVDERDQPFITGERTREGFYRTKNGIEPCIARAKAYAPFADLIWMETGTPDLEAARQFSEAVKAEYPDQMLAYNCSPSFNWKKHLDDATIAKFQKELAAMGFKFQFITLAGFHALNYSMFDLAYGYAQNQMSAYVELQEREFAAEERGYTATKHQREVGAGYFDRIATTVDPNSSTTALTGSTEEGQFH
Settings: Schloss and Cleland, 1982, cited from earlier work

Row | Structure (SMILES) | Ki | Ki (read-out: Ki)
1 | O=C(O)C(=O)CBr [bromopyruvate, 3-bromopyruvate] | 120 µM | –
2 | O=C(O)CC[N+](=O)[O-] [3-nitropropionate] | – | 3 µM
